Source: patent publication US20260001928A1 (CORTERIA PHARMACEUTICALS, priority 2022, published 2026)
*1 amine or outer side, *2 acyl side, *3 side chain or, on linkers, in order; H or OH if unused. Where a SMILES comes first, the peptide text is derived from it. Side-chain parts run from the residue outwards. [ ]: non-standard residue; d: D form. The star is where a group is joined. C16 diacid = O=C(O)CCCCCCCCCCCCCCC(=O)*; γGlu = O=C(O)[C@H](CCC(=O)[*:2])N[*:1]; NMeV = CN[C@H](C(=O)O)C(C)C; Api = NC1(C(=O)O)CCNCC1; Hexanoyl = CCCCCC(=O)*; Aib = CC(C)(N)C(=O)O

Experiments:
human CRF2a receptor = molecular target: T1, human CRF2a receptor (Homo sapiens, UniProt Q13324); assay: Activity at human CRF2a receptor, cAMP functional assay in TeloHEAC cells; format: cell-based; details: TeloHEAC cells stably expressing human CRF2a receptor, relative to urocortin 2 (100 nM = 100%)
T1 construct: expressed in transfected cells; host or cells: TeloHEAC cells
T1 sequence (Q13324 1-411): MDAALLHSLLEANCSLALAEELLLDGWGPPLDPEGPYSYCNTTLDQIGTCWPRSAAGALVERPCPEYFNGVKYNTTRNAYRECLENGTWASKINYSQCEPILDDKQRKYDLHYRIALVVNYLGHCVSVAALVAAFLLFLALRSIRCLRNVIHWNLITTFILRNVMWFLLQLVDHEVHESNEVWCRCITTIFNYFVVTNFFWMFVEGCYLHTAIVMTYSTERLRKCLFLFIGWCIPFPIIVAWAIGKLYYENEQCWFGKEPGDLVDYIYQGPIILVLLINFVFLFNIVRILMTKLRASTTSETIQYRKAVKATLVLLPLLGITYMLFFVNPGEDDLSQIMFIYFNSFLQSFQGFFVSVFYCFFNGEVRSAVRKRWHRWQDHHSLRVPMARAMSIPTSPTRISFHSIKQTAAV
Procedure, shortened: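 cAMP accumulation was measured by HTRF 665/620 nm ratio after 30 min at 37° C compound exposure (16 twofold dilutions) of CRF2a-expressing TeloHEAC cells, 10000/well, in HEPES-buffered HBSS plus IBMX. Activity was normalised to urocortin 2 at 100 nM (100%), and EC50 was the concentration giving half-maximal activation.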

CFR1R receptor = molecular target: T2, CFR1R receptor (Homo sapiens, UniProt P34998); assay: Activity at anti-target CFR1R receptor, cAMP assay in CRF1R-overexpression CHO-K1 cells; format: cell-based; details: 100% = Sauvagine at 100 nM; for EC50: cAMP
T2 construct: host or cells: CHO-K1 (clone 2)
T2 sequence (P34998 24-415): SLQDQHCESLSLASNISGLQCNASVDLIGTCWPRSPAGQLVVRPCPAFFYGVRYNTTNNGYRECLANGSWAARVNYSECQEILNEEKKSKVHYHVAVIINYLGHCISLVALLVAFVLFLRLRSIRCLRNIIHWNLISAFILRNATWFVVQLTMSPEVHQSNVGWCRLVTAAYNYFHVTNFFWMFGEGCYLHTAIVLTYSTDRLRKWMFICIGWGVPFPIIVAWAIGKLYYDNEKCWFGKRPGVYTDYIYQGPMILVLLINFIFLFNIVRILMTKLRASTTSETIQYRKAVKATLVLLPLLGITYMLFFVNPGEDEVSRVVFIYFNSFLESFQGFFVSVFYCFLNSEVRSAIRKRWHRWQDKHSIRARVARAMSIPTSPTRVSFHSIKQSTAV
Procedure, shortened: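 Clone 2; cryopreserved stocks (10% DMSO); 4000 cells/well final; 100% activation = Sauvagine 100 nM; otherwise as TeloHAEC protocol.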

| EC50 (human CRF2a receptor) [nM] | Emax (% I) (CFR1R receptor) | EC50 (CFR1R receptor) [nM] | SMILES |
| --- | --- | --- | --- |
| 0.29 | 8 | > 250 | CCCCCC(=O)N[C@H](C(=O)N[C@@H](CC(C)C)C(=O)N[C@@H](CO)C(=O)N[C@@H](CC(C)C)C(=O)N[C@@H](CC(=O)O)C(=O)N[C@@H](C(=O)N1CCC[C@H]1C(=O)N[C@H](C(=O)N[C@@H](CCCCN)C(=O)N[C@@H](CC(C)C)C(=O)N[C@@H](CCCCNC(=O)CC[C@H](NC(=O)CCCCCCCCCCCCCCC(=O)O)C(=O)O)C(=O)N[C@@H](CCCCN)C(=O)N[C@H](C(=O)N[C@@H](CC(C)C)C(=O)N[C@@H](CC(C)C)C(=O)N[C@@H](CCC(=O)O)C(=O)N[C@@H](CCC(N)=O)C(=O)N[C@@H](CCC(=O)O)C(=O)N[C@@H](CCCCN)C(=O)N[C@@H](CCC(N)=O)C(=O)N[C@@H](CCCCN)C(=O)N[C@@H](CCCCN)C(=O)N[C@@H](CCC(N)=O)C(=O)N[C@@H](CCCNC(=N)N)C(=O)N[C@@H](CCC(=O)O)C(=O)N[C@@H](CCC(N)=O)C(=O)N[C@@H](C)C(=O)N[C@@H](CCC(=O)O)C(=O)N[C@H](C(=O)N[C@@H](CC(N)=O)C(=O)NC(C)(C)C(=O)N[C@@H](CCC(N)=O)C(=O)N[C@H](C(=O)N[C@@H](CC(C)C)C(=O)N[C@@H](C)C(=O)N[C@@H](CCC(N)=O)C(=O)N[C@H](C(N)=O)C(C)C)[C@@H](C)CC)[C@@H](C)O)[C@@H](C)CC)[C@@H](C)CC)C(C)C)C(C)C [compound 156] (Hexanoyl-VLSLD[dV]PIKLK([γGlu-C16 diacid])KILLEQEKQKKQREQAETN[Aib]QILAQV-NH2) |
| 0.32 | 30 | > 250 | CCCCCC(=O)N[C@H](C(=O)N[C@@H](CC(C)C)C(=O)N[C@@H](CO)C(=O)N[C@@H](CC(C)C)C(=O)N[C@@H](CC(=O)O)C(=O)N[C@@H](C(=O)N1CCC[C@H]1C(=O)N[C@H](C(=O)N[C@@H](CCCCN)C(=O)N[C@@H](CC(C)C)C(=O)N[C@@H](CCCCNC(=O)CC[C@H](NC(=O)CCCCCCCCCCCCCCC(=O)O)C(=O)O)C(=O)N[C@@H](CCCCN)C(=O)N[C@H](C(=O)N[C@@H](CC(C)C)C(=O)N[C@@H](CC(C)C)C(=O)N[C@@H](CCC(=O)O)C(=O)N[C@@H](CCC(N)=O)C(=O)N[C@@H](CCC(=O)O)C(=O)N[C@@H](CCCCN)C(=O)N[C@@H](CCC(N)=O)C(=O)N[C@@H](CCCCN)C(=O)N[C@@H](CCCCN)C(=O)N[C@@H](CCC(N)=O)C(=O)N[C@@H](CCCNC(=N)N)C(=O)N[C@@H](CCC(=O)O)C(=O)N[C@@H](CCC(N)=O)C(=O)N[C@@H](C)C(=O)N[C@@H](CCC(=O)O)C(=O)N[C@H](C(=O)N[C@@H](CC(N)=O)C(=O)NC1(C(=O)N[C@@H](CCC(N)=O)C(=O)N[C@H](C(=O)N[C@@H](CC(C)C)C(=O)N[C@@H](C)C(=O)N[C@@H](CCC(N)=O)C(=O)N[C@H](C(N)=O)C(C)C)[C@@H](C)CC)CCNCC1)[C@@H](C)O)[C@@H](C)CC)[C@@H](C)CC)C(C)C)C(C)C [compound 157] (Hexanoyl-VLSLD[dV]PIKLK([γGlu-C16 diacid])KILLEQEKQKKQREQAETN[Api]QILAQV-NH2) |
| 2.97 | 4 | > 250 | CC[C@H](C)[C@H](NC(=O)[C@H](CCC(N)=O)NC(=O)C(C)(C)NC(=O)[C@H](CC(N)=O)NC(=O)[C@@H](NC(=O)[C@H](CCC(=O)O)NC(=O)[C@H](C)NC(=O)[C@H](CCC(N)=O)NC(=O)[C@H](CCC(=O)O)NC(=O)[C@H](CCCNC(=N)N)NC(=O)[C@H](CCC(N)=O)NC(=O)[C@H](CCCCN)NC(=O)[C@H](CCCCN)NC(=O)[C@H](CCC(N)=O)NC(=O)[C@H](CCCCN)NC(=O)[C@H](CCC(=O)O)NC(=O)[C@H](CCC(N)=O)NC(=O)[C@H](CCC(=O)O)NC(=O)[C@H](CC(C)C)NC(=O)[C@H](CC(C)C)NC(=O)[C@@H](NC(=O)[C@H](CCCCN)NC(=O)[C@H](CCCCNC(=O)CC[C@H](NC(=O)CCCCCCCCCCCCCCC(=O)O)C(=O)O)NC(=O)[C@H](CC(C)C)NC(=O)[C@H](CCCCN)NC(=O)[C@@H](NC(=O)[C@@H]1CCCN1C(=O)[C@H](NC(=O)[C@H](CC(=O)O)NC(=O)[C@H](CC(C)C)NC(=O)[C@H](CO)NC(=O)[C@H](CC(C)C)NC(=O)[C@@H](NC)C(C)C)C(C)C)[C@@H](C)CC)[C@@H](C)CC)[C@@H](C)O)C(=O)N[C@@H](CC(C)C)C(=O)N[C@@H](C)C(=O)N[C@@H](CCC(N)=O)C(=O)N[C@H](C(N)=O)C(C)C [compound 159] (H-[NMeV]LSLD[dV]PIKLK([γGlu-C16 diacid])KILLEQEKQKKQREQAETN[Aib]QILAQV-NH2) |
| 2.08 | 2 | > 250 | CC[C@H](C)[C@H](NC(=O)[C@H](CCC(N)=O)NC(=O)C1(NC(=O)[C@H](CC(N)=O)NC(=O)[C@@H](NC(=O)[C@H](CCC(=O)O)NC(=O)[C@H](C)NC(=O)[C@H](CCC(N)=O)NC(=O)[C@H](CCC(=O)O)NC(=O)[C@H](CCCNC(=N)N)NC(=O)[C@H](CCC(N)=O)NC(=O)[C@H](CCCCN)NC(=O)[C@H](CCCCN)NC(=O)[C@H](CCC(N)=O)NC(=O)[C@H](CCCCN)NC(=O)[C@H](CCC(=O)O)NC(=O)[C@H](CCC(N)=O)NC(=O)[C@H](CCC(=O)O)NC(=O)[C@H](CC(C)C)NC(=O)[C@H](CC(C)C)NC(=O)[C@@H](NC(=O)[C@H](CCCCN)NC(=O)[C@H](CCCCNC(=O)CC[C@H](NC(=O)CCCCCCCCCCCCCCC(=O)O)C(=O)O)NC(=O)[C@H](CC(C)C)NC(=O)[C@H](CCCCN)NC(=O)[C@@H](NC(=O)[C@@H]2CCCN2C(=O)[C@H](NC(=O)[C@H](CC(=O)O)NC(=O)[C@H](CC(C)C)NC(=O)[C@H](CO)NC(=O)[C@H](CC(C)C)NC(=O)[C@@H](NC)C(C)C)C(C)C)[C@@H](C)CC)[C@@H](C)CC)[C@@H](C)O)CCNCC1)C(=O)N[C@@H](CC(C)C)C(=O)N[C@@H](C)C(=O)N[C@@H](CCC(N)=O)C(=O)N[C@H](C(N)=O)C(C)C [compound 160] (H-[NMeV]LSLD[dV]PIKLK([γGlu-C16 diacid])KILLEQEKQKKQREQAETN[Api]QILAQV-NH2) |
| 0.49 | 0 | > 250 | CC[C@H](C)[C@H](NC(C)=O)C(=O)N[C@H](C(=O)N[C@@H](CC(C)C)C(=O)N[C@@H](CO)C(=O)N[C@@H](CC(C)C)C(=O)N[C@@H](CC(=O)O)C(=O)N[C@@H](C(=O)N1CCC[C@H]1C(=O)N[C@H](C(=O)N[C@@H](CCCCN)C(=O)N[C@@H](CC(C)C)C(=O)N[C@@H](CCCCNC(=O)CC[C@H](NC(=O)CCCCCCCCCCCCCCC(=O)O)C(=O)O)C(=O)N[C@@H](CCCCN)C(=O)N[C@H](C(=O)N[C@@H](CC(C)C)C(=O)N[C@@H](CC(C)C)C(=O)N[C@@H](CCC(=O)O)C(=O)N[C@@H](CCC(N)=O)C(=O)N[C@@H](CCC(=O)O)C(=O)N[C@@H](CCCCN)C(=O)N[C@@H](CCC(N)=O)C(=O)N[C@@H](CCCCN)C(=O)NC(C)(C)C(=O)N[C@@H](CCC(N)=O)C(=O)N[C@@H](CCCNC(=N)N)C(=O)N[C@@H](CCC(=O)O)C(=O)N[C@@H](CCC(N)=O)C(=O)N[C@@H](C)C(=O)N[C@@H](CCC(=O)O)C(=O)N[C@H](C(=O)N[C@@H](CC(N)=O)C(=O)NC(C)(C)C(=O)N[C@@H](CCC(N)=O)C(=O)N[C@H](C(=O)N[C@@H](CC(C)C)C(=O)N[C@@H](C)C(=O)N[C@@H](CCC(N)=O)C(=O)N[C@H](C(N)=O)C(C)C)[C@@H](C)CC)[C@@H](C)O)[C@@H](C)CC)[C@@H](C)CC)C(C)C)C(C)C [compound 162] (Ac-IVLSLD[dV]PIKLK([γGlu-C16 diacid])KILLEQEKQK[Aib]QREQAETN[Aib]QILAQV-NH2) |
